This note sets out measurements from patent publication US8329413B2, “Glycoproteomic probes for fluorescent imaging of fucosylated glycans in vivo” (Academia Sinica, priority 2007, dated 2012).

Series [1] can be described thus: Fluorescence spectra and quantum yields of probes and click products. The series is classed as physicochemical. Conditions: before click reaction. The method, then: Reactivity and click-activated fluorogenic properties of compounds 1a and 1b were tested by performing a Cu(I)-catalyzed azide-alkyne [3+2] cycloaddition (CuAAC) with model fucose analogs 2a and 2b, respectively, as shown in FIG. 3. […] As expected, the ligation reactions produced in a significant increase in fluorescence intensity. The emission maximum of 3a was 462 nm with a quantum yield of 0.36 when excited at 357 nm. […] Unfortunately, the reaction rate between alkyne probe 1a and azidofucose 2a was very slow. Although the reaction of azido probe 1b was completed in <30 min. only 10% of 1a was converted to 3a after 24 h by using the same conditions (monitored by LC-MS). […]
All chemicals were purchased as reagent grade and used without further purification. Reactions were monitored with analytical thin-layer chromatography (TLC) on silica gel 60 F254 plates and visualized under UV (254 nm) and/or by staining with 5% sulfuric acid or acidic ceric ammonium molybdate. ^1H— or ^13C-NMR spectra were measured on a Bruker DRX-500 or DRX-600 using CDCl3 or DMSO-d6 as the solvent (1H, 500 or 600 MHz; ^13C, 125 or 150 MHz). Chemical shifts (in ppm) were determined relative to either tetramethylsilane (0 ppm) or deuterated chloroform (77 ppm). […] Fluorescent excitation and emission were recorded using a HITACHI F-2000 fluorescence spectrophotometer. […]

Series [2] deals with human alpha1-acid glycoprotein (AGP). The series can be described thus: Fluorescent labeling of AGP fucosylated by FucT V, SDS/PAGE visualized by UV light. Conditions: AGP fucosylated with FucT V and GDP-fucose analog 8, 9 or 10, then labeled with 1a or 1b. The series is classed as biochemical. An excerpt: (§1) Briefly, fucose analogs 4 and 5 are converted to the corresponding 1-bromides, which then are substituted directly by a phosphate group. […] Therefore, TiBr4 is used instead, as described by Srivastava. The fucose-1-phosphates are converted to the corresponding GDP-fucose analogs by using 1H-tetrazole as a catalyst. The tolerability of GDP-fucose analogs 8 and 9 for human alpha-1,3-fucosyltranseferases (FucTs) II-VII is confirmed by using a standard microtiter plate assay. They are then used to elaborate the glycoconjugate substrate, human alpha1-acid glycoprotein (AGP), an acute-phase protein. As fucosylation of AGP is associated with inflammatory diseases, the degree of fucosylation of AGP could be a potential diagnostic or prognostic marker. AGP was fucosylated by using FucT V in the presence of GDP-fucose analogs 8 or 9. After gel filtration, the fucosylated AGP is labeled by using the corresponding naphthalimide 1a or 1b for 4 h at room temperature. Labeled protein is analyzed by SDS/PAGE and visualized by UV light (365 nm). […] Treated protein was separated by SDS/PAGE and visualized by UV light (Top) and Coomassie blue staining (CBB) (Middle). (Bottom) Modified GDP-fucose.
Human alpha1-acid glycoprotein (0.33 mg/mL), pretreated with alpha-fucosidase, was incubated with human alpha-1,3-fucosyltransferase V (100 mU/mL) in MOPS buffer (50 mM, pH 7.2) containing 150 mM NaCl, 10 mM MnCl2, 4 mM ATP, 0.2 mM GDP-fucose analog (8-10). After incubation at 37° C. for 8 h, additional GDP-fucose derivative (final 0.4 mM) was added and the reaction mixture was incubated at 37° C. for 12 h. […]
The fucosylated glycoconjugate was dissolved in HEPES buffer (50 mM, pH 7.6), and added to a solution containing CuSO4 (0.2 mM), 1.0 mM sodium ascorbate, the tris(triazolyl)amine ligand (20) (0.2 mM, stock in DMSO), and the appropriate naphthalimide ligation probe 1a or 1b (0.1 mM, stock in DMSO, final concentration of DMSO; 10%)). After 1 h at room temperature, the mixture was passed through NAP-5 column in water and lyophilized, and analyzed by SDS-PAGE.

A short description of series [3]: Decomposition of probe 1b by LC-MS. Type of series: physicochemical. The method, then:
Bicyclic aromatic azides are known to easily decompose by thermolysis or photolysis through a highly reactive nitrene intermediate (FIG. 12).
Thus we analyzed the decomposition of 1b using LC-MS (FIG. 13). […] The compounds were monitored at 350 nm by using an Agilent SB C8 50×4.6 mm column. (a) 1b. (b) Cycloaddition reaction with 7. (c) After 12 h incubation without 7. (d) The synthesized 4-amino derivative 1c (1). See typical experimental procedure of cycloaddition for the reaction conditions.
In the presence of 6-alkyne fucose 2b, probe 1b was completely converted into the product 3b. However, without 6-alkyne fucose […], probe 1b decomposed into a fluorescent compound with a molecular weight corresponding to the 4-amino derivative 1c ([M+H]^+ 241; ca. 80% conversion after 12 h incubation at room temperature).

Series [4] concerns human alpha-1,3-fucosyltranseferases (FucTs) II-VII. The series can be described thus: Standard microtiter plate assay of tolerability of GDP-fucose analogs for fucosyltransferases. Type of series: biochemical.
Source text: as §1

Series [5] is described as follows: Rapid screening of L-amino acids as cycloaddition ligand catalysts using fluorogenic probe 1a. The settings on record: L-amino acid 1.0 mM, CuSO4 1.0 mM, 1a + 2a, 24 h room temperature. As to the method:
A fluorescence quenching technique was used to identify catalysts for the copper-catalyzed cycloaddition. […] In such a screen, the reaction between 1a and 2a is performed in microtiter plates in the presence of individual amino acids. […] (Upper) The microtiter plate was visualized under long wavelength UV lamp (365 nm). (Lower) The fluorescent intensities of each well are measured by a fluorescence plate reader.
The effect of the ligand effect on the reaction rate was visualized by holding the 96-well microtiter plate under a long wavelength UV lamp (365 nm) and analyzed with a standard fluorescence multiplate reader.
The overall volume in each vial was 250 microliters containing a solution of 1,8-naphthalimide 1a (0.5 mM), azidofucose 2a (1.0 mM), CuSO4 (1.0 mM), L-amino acid (1.0 mM) and sodium ascorbate (5.0 mM) in DMSO/water (56% DMSO). The reactions were allowed to stand at room temperature for 24 hours. The reaction mixture was diluted 60 times with 50 mM HEPES buffer (pH 7.2) and then transferred to 96-well microtiter plate, and fluorescence intensity (excitation, 365 nm; emission, […]) was determined with a Fusion plate reader (Perkin Elmer/Packard).

Series [6] can be described thus: Stoichiometric study of L-histidine in the cycloaddition of 1a and 2a. The settings on record: relative to copper ion; L-histidine 0-3.0 mM, CuSO4 1.0 mM. The method, then: The overall volume in each vial was 250 microliters containing a solution of 1,8-naphthalimide 1a (0.5 mM), azidofucose 2a (1.0 mM), CUSO4 (1.0 mM), L-histidine (0-3.0 mM) and sodium ascorbate (5.0 mM) in DMSO/water (56% DMSO). The reactions were allowed to stand at room temperature for 24 hours. The catalytic activity was determined by the same method described above (FIG. 10).
In this condition, 60% of 1a was converted to the product 10 after 1 h at room temperature and the reaction was completed in less than 6 h. To confirm the effects of L-His on the reaction, we measured the time-course of the reaction by fluorescence spectrometer. Conditions: 1,8-naphthalimide 1a (0.1 mM), azidofucose 2a (1.0 mM), CuSO4 (2.0 mM), L-histidine (0 or 4.0 mM) and sodium ascorbate (100 mM) in 50 mM HEPES buffer (containing 6% DMSO). After mixing all reagents, the fluorescence intensity was measured in 5 min intervals at 37° C. by a fluorescence spectrophotometer (FIG. 11). […] Fluorescence intensities were monitored at λ ex 357 nm and λem 462 nm.

In the case of `CCN1C(=O)c2cccc3c(N=[N+]=[N-])ccc(c23)C1=O` [Compound 1b, 4-Azido-N-ethyl-1,8-naphthalimide], the “fluorescence of parent probe” value in series [1] is “no fluorescence”. Also, the “fluorescent band of labeled AGP on SDS/PAGE under UV light (365 nm)” value in series [2] was “clear fluorescent bands”. For the same compound, the “decomposition to 4-amino derivative 1c, conversion” value in series [3] (after 12 h incubation at room temperature, without 6-alkyne fucose) is reported as “ca. 80%”. Moreover, the “stability of probe during labeling” value in series [3] (during AGP labeling reaction) is given as “slowly decomposed into a strongly fluorescent 4-amino derivative”.

With `C#C[C@@H]1O[C@H](OP(=O)(O)OP(=O)(O)OC[C@H]2O[C@@H](n3cnc4c(=O)[nH]c(N)nc43)[C@H](O)[C@@H]2O)[C@@H](O)[C@H](O)[C@@H]1O.CCN(CC)CC` [Compound 8, Guanosine 5′-diphospho-6,7-deoxy-beta-L-galacto-hept-6-ynopyranoside triethylammonium salt], the “tolerability as substrate for FucTs” value in series [4] is reported as “confirmed”.

Consider `N[C@@H](Cc1c[nH]cn1)C(=O)O` [Histidine, histidine], for which the “enhancement of reaction rate compared to ligand-free conditions” value in series [5] is listed as “about 6 times”. The “amount of ligand giving maximum effect on the catalysis” value in series [6] amounted to 2.0 mol equivalent.
